One compound from US20150004110A1, “NOVEL ANTI-AGING AND DEPIGMENTING COSMETIC COMPOSITIONS” (DIVERCHIM, priority 2011, published 2015) can be followed below.

SMILES strings stand for the structures. Like-named read-outs stand apart in the source and are kept apart here.

As a reminder, the inhibition is the change of the read-out against control, counted positive when it falls.

This experiment deals with B16 melanocytes stimulated with NDP-MSH. Briefly: Anti-melanogenesis activity: melanin synthesis in B16 melanocytes stimulated with NDP-MSH. Format: cell-based. The method, then: The depigmenting effect was evaluated on a line of type B16 melanocytes stimulated with NDP-MSH, (natural hormone stimulating melanogenesis; Melanocyte Stimulating Hormone, [Nle, DPhe]-α-MSH). Melanin synthesis was evaluated.
The anti-melanogenesis activity of the compounds in solution in DMSO was evaluated by measuring melanin synthesis in a model of B16 melanocytes stimulated with a stable derivative of α-MSH (natural melanogenesis stimulating hormone): NDP-MSH.
The melanocytes were seeded in a 96-well plate and were cultured for 24 h (37° C., 5% CO2, DMEM 1 g/L glucose without phenol red supplemented with glucose at 3 g/L, L-glutamine at 2 mM, penicillin at 50 U/mL, streptomycin at 50 μg/mL, foetal calf serum (FCS) at 10%). After incubation, the culture medium was then replaced with culture medium supplemented or not supplemented (unstimulated control) with a stable derivative of α-MSH and containing or not containing (controls) the test compounds or the reference (kojic acid at 25, 100, 400, 800 μg/mL). Each experiment was carried out with n=3, apart from the controls carried out with n=6, then the cells were incubated for 72 h. Wells without cells received in parallel the same quantities of medium supplemented or not supplemented with NDP-MSH and containing or not containing the test compounds or the reference in order to quantify the background noise associated with the presence of the compounds.
After incubation for 72 hours, the total melanin (intra- and extracellular) was quantified by measuring the absorption at 405 nm of each sample (direct reading of the culture plates) against a standard range of melanin (melanin concentrations tested from 0.78 to 100 μg/mL). The background noise, measured in the wells without cells, was subtracted from the measured values so as only to take into account the effect connected with melanin production, without taking into account the possible interference connected with the presence of the compounds. The results were expressed as percentage of melanin relative to the control as well as percentage inhibition.
The operating conditions are the same as in Example 12.

Where [1] appears, read: Melanocyte, NDP-MSH stimulated B16, 72 h, Table 2, read-out: Standardized data Inhibition (%) (melanin).
The mark [2] stands for this setting: Melanocyte, comparison with 2 reference molecules, Table 3, read-out: Standardized data Inhibition (%) (melanin).

For `Oc1ccccc1CCOc1ccc(F)cc1` [Compound 1, 2-[2-(4-fluoro-phenoxy)-ethyl]-phenol], the “Depigmenting effect (inhibition of melanin synthesis), in words” value (30 μM and 100 μM) is recorded as “clear inhibitory effect”. In addition, the “Depigmenting effectiveness compared with the two reference products” value (30 μM and 100 μM, versus rucinol and [869743-37-3]) is reported as “slightly more effective than the two reference products used”. Besides, the inhibition at 10 µM (Melanocyte, 10 μM, NDP-MSH stimulated B16, 72 h, Table 2, read-out: Standardized data Inhibition (%) (melanin)) came out at 0%. Under setting [1], the inhibition at 30 µM was 93% and the inhibition at 100 µM stood at 112%. For the same compound, under setting [2], the inhibition at 30 µM amounted to 98% and the inhibition at 100 µM turned out to be 124%.
